Tests used:
[1] = target: T1, 31-O-desmethylFK-506 O-methyltransferase (FKMT) (Streptomyces tacrolimicus, UniProt P74838); experiment: FKMT O-methyltransferase assay / kinetic analysis; assay type: biochemical, Streptomyces sp. MA6858; conditions: substrate A as variable, above 50 uM; fixed SAM 220 μM
T1 construct: endogenous in cells; host or cells: Native enzyme purified in house from mycelium of Streptomyces MA6858 (ATCC 55098), not recombinant; for the kinetics, purified through the second MonoQ column
T1 sequence (P74838 1-260): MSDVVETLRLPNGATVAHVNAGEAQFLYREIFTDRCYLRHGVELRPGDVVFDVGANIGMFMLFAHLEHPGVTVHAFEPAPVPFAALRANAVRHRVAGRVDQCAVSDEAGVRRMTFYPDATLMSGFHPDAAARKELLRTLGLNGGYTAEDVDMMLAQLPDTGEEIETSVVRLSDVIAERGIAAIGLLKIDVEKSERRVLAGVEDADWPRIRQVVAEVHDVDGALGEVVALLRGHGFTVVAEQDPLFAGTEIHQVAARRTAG
Procedure: (§1) This enzyme, is SAM dependent and has requirement for Mg^+2 with optimum concentration of 4 mM. […] The temperature effect on the methylation reaction was examined at 0°, 22°, 24°, 34°, 37°, and 44° C. The optimum temperature for the reaction was determined to be at 34° C. Above this temperature there was a problem with substrate decomposition. Under the established incubation condition in which 31 uM of substrate A and 220 uM of SAM were used, the rate of the methylation reaction was linear up to 35 min with protein concentration up to 100 ug.
(§2) For the kinetic studies, a preparation of the FKMT enzyme which had been purified through the second MonoQ column chromatography was used. Under conditions for the initial velocity measurement, apparent Km and Vmax were determined for 31-O-desmethyFK-506 (substrate A) at one saturating concentration of SAM ([…]). […]
(§3) The assay was carried out in 1 ml. mixture containing 0.025 mM 31-desmethylFK-506, 4 mM MgSO4 and different quantities of the enzyme source in 50 mM phosphate buffer, pH 7.5. […] The plastic sheet was developed in chloroform:methanol (9:1) and area showing standard FK-506 under UV-light was cut and the radioactivity in the cut-strip was measured and the amount of the product formed was calculated.

in vitro immune systems = conditions: J. Antibiotics 1987, 40, 1256; cited from earlier work
[2] = substrate: C=CC[C@@H]1/C=C(\C)C[C@H](C)C[C@H](OC)[C@H]2O[C@@](O)(C(=O)C(=O)N3CCCC[C@H]3C(=O)O[C@H](/C(C)=C/[C@@H]3CC[C@@H](O)[C@H](O)C3)[C@H](C)[C@@H](O)CC1=O)[C@H](C)C[C@@H]2OC; experiment: FKMT O-methyltransferase assay / kinetic analysis; assay type: biochemical, Streptomyces sp. MA6858; conditions: other: FKMT purified through second MonoQ column, initial velocity, pH 7.5
Procedure: as §1, §2, §3

For `C=CC[C@@H]1/C=C(\C)C[C@H](C)C[C@H](OC)[C@H]2O[C@@](O)(C(=O)C(=O)N3CCCC[C@H]3C(=O)O[C@H](/C(C)=C/[C@@H]3CC[C@@H](O)[C@H](O)C3)[C@H](C)[C@@H](O)CC1=O)[C@H](C)C[C@@H]2OC` [31-O-desmethyFK-506], the substrate inhibition [1] was “no substrate inhibition”.

For `C=CC[C@@H]1/C=C(\C)C[C@H](C)C[C@H](OC)[C@H]2O[C@@](O)(C(=O)C(=O)N3CCCC[C@H]3C(=O)O[C@H](/C(C)=C/[C@@H]3CC[C@@H](O)[C@H](OC)C3)[C@H](C)[C@@H](O)CC1=O)[C@H](C)C[C@@H]2OC` [FR-900506, 17-allyl-1,14-dihydroxy-12-[2'-(4"-hydroxy-3"-methoxycyclohexyl)-1'-methylvinyl]-23,25-dimethoxy-13,19,21,27-tetramethyl-11,28-dioxa-4-azatricyclo-[22.3.1.0^4,9]-octacos-18-ene-2,3,10,16-tetraone], the “effectiveness relative to cyclosporin in the suppression of in vitro immune systems” value (in vitro immune systems) is listed as 100 times.

B1: 31-O-desmethylFK-506 O-methyltransferase (FKMT) (Streptomyces tacrolimicus) (protein)
chain: MSDVVETLRLPNGATVAHVNAGEAQFLYREIFTDRCYLRHGVELRPGDVVFDVGANIGMFMLFAHLEHPGVTVHAFEPAPVPFAALRANAVRHRVAGRVDQCAVSDEAGVRRMTFYPDATLMSGFHPDAAARKELLRTLGLNGGYTAEDVDMMLAQLPDTGEEIETSVVRLSDVIAERGIAAIGLLKIDVEKSERRVLAGVEDADWPRIRQVVAEVHDVDGALGEVVALLRGHGFTVVAEQDPLFAGTEIHQVAARRTAG
notes: Washed mycelium was used for the preparation of the cell-free extract; endogenous in cells; host or cells: Native enzyme purified in house from mycelium of Streptomyces MA6858 (ATCC 55098), not recombinant; for the kinetics, purified through the second MonoQ column
Work on B1 yielded a Km ([2]; saturating SAM (220 uM)) of 23.21 µM and a Vmax ([2]; saturating SAM (220 mM as printed)) of 2.33 nmol/mg/min.
